Key:
[1] = molecular target: T1, Marasmius oreades lectin (MOA, cMOA) (Marasmius oreades, UniProt Q8X123); assay: Isothermal titration calorimetry, MOA of Example 1 (proteolyzed, clipped form, cMOA); type: binding; conditions: for Kd / TΔS / −ΔG / −ΔH / Ka / ligand binding: isothermal titration calorimetry; for Ka, cMOA: proteolyzed (clipped) native lectin, Table 6
T1 sequence (Q8X123 1-293): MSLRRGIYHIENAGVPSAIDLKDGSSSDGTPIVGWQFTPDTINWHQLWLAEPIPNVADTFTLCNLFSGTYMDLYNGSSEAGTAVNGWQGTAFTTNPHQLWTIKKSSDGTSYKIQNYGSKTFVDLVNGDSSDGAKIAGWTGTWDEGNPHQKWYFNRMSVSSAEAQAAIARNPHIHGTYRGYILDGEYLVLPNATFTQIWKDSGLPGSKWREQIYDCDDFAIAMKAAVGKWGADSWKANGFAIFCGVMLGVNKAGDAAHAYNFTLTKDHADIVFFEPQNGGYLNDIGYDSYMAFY

MOA = assay: Sugar ligand binding to MOA (hemagglutination inhibition, hapten inhibition of precipitation, calorimetry); parameters: species or system Marasmius oreades; conditions: binding to MOA in solution
Experimental: All three methods gave approximately the same results, with the calorimetric data being the most precise.
Being a blood type B agglutinin, MOA was assayed primarily against D-galactosyl-terminated sugars and oligosaccharides. […] Methyl α-galactopyranoside was similarly very poor. […] While not limited to any particular mechanism, and with the understanding that knowledge of the underlying mechanism is not required for the practice of the invention, it is believed that recognition of the L-fucosyl moiety is the reason for limited agglutination of human O erythrocytes and a weak precipitin curve with blood group H substance.

intact native MOA (nMOA) = molecular target: T2, intact native MOA (nMOA) (Marasmius oreades, UniProt Q8X123); assay: Isothermal titration calorimetry, intact native MOA (nMOA); type: binding; conditions: read-out: Ka, nMOA (converted)
T2 sequence (Q8X123 1-293): T1 sequence (Q8X123 1-293)
Experimental: (§1) As this volume underfills the titration cell, variable volume calculations were applied, using the Bindworks software installed in the instrument. […] Finally, the trisaccharide L-Fucα1,2Ga1β1,4G1c (fucosyllactose), related to the blood group H trisaccbaride, was assayed. […] While not to be limited to any particular mechanism, it is believed that this may be the reason that MOA recognizes and agglutinates human O erythrocytes to a limited extent, and gives a weak precipitin curve with blood group H substance.
(§2) Purification of recombinant MOA and native intact MOA-Recombinant MOA was purified from the soluble fraction by absorption on a column of melibiose-Sepharose and elution by lactose. Further purification was carried out on an affinity column of Synsorb B. Except for the diaminopropane elution, all affinity purifications were carried out in PBS, pH 7.2, containing 1.25 mM EDTA. After purification, lectin solutions were dialyzed against distilled water and lyophilized. […] Intact native MOA was prepared with a purification procedure (Example 2) that utilized a protease inhibitor cocktail (product P8215, Sigma, St. Louis, Mo.) which was added at the level of 0.1 ml/100 ml extract buffer (instead of phenylmethylsulfonyl fluoride), all buffers lacked Ca^++ and contained 1.25 mM EDTA, and the initial extraction and ammonium sulfate fractionations were carried out under an atmosphere of argon.
(§3) Binding constants of several relevant oligosaccharides to recombinant and intact native MOA were determined calorimetrically.

recombinant MOA (rMOA) = molecular target: T3, recombinant MOA (rMOA) (Marasmius oreades, UniProt Q8X123); assay: Isothermal titration calorimetry, recombinant MOA (rMOA); type: binding; conditions: read-out: Ka, rMOA (converted)
T3 sequence (Q8X123 1-293): T1 sequence (Q8X123 1-293)
Experimental: as §1
Expression and characterization of recombinant MOA: A full-length PCR product incorporating NdeI and EcoRI into its forward and reverse primers, respectively, was cloned into PCR Blunt II using topoisomerase (Invitrogen) and subsequently shuttled into an IPTG inducible pT7 expression vector (MOApT7LO). Recombinant MOA was expressed in a Nova Blue DE3 strain of E. coli. Expressing bacteria were collected by centrifugation and resuspended in a lysis buffer consisting of 50 mM NaH2PO4, 300 mM NaCl, 10 mM imidizole, 10mM 2-mercaptoethanol, 1 mM phenylmethylsulfonyl fluoride, 1% NP-40, and a protease inhibitor cocktail. The extract was twice run through a french press. The insoluble fraction was removed by centrifugation (10,000×g, 15 min).
as §2, §3

immobilized MOA = assay: Binding to MOA-Sepharose 4B affinity column; parameters: species or system Marasmius oreades; conditions: washed with PBS, eluted with 20 mM diaminopropane
From the text: Further insight into the carbohydrate specificity of MOA was obtained by using immobilized MOA. Immobilization of MOA on a variety of supports is contemplated. In one embodiment, MOA is immobilized on a matrix that can be used in an affinity column (see below). In some embodiments, the matrix comprises Sepharose 4B beads. In some Embodiments, the MOA-conjugated Sepharose 4B beads are packed in a column for binding and affinity isolation and purification studies. Briefly, the MOA-Sepharose column is loaded with glycan, glycoconjugate or serum sample to be tested, then washed with an appropriate buffer (including but not limited to PBS). Bound components are eluted with a suitable elution buffer (including but not limited to 1,3-diaminopropane in NaCl), and the collected fractions are analyzed for the presence of protein or glycan (see Example 6 below). The fractions containing the bound components (eluted as described herein) can be pooled and concentrated.
MOA was immobilized on cyanogen bromide-activated Sepharose 4B as follows. 1.5 g of cyanogen bromide-activated Sepharose 4B was allowed to swell in 100 ml of 1 mM HCl solution for 30 min. The supernatant was removed and the swollen beads (6 ml) were filtered on a sintered funnel, washed several times with 100 ml of 1 mM HCl and finally with 20 ml of 0.1 M sodium bicarbonate buffer, pH 8.3, containing 0.5 M sodium chloride. The beads were quickly transferred to a plastic bottle containing 16.2 mg MOA in the same buffer (10 ml) containing 0.2 M lactose. The plastic bottle was shaken at room temperature for 6 hr and at 4° C. overnight. The beads were filtered on a sintered glass funnel, washed with the coupling buffer, and then shaken in 1 M ethanolamine (12 ml) at room temperature for 2.5 hr to cap all of the unreacted iminocarbonate groups. The beads were filtered, washed alternately with the coupling buffer then sodium acetate buffer (0.1 M, pH 4.0 containing 0.5 M NaCl) four times. A column (1×7 cm) packed with the beads was finally washed with PBS containing 0.04% sodium azide. The beads contained 2.3 mg MOA per ml Sepharose 4B, based on MOA remaining in solution.
In order to assess the binding of various glycans, glycoconjugates and serum samples to MOA-Sepharose, the following general procedure was used. The MOA-Sepharose column was loaded with glycan, glycoconjugate or serum sample (0.6-5 ml) and washed with PBS (15 ml). The bound components were eluted with 20 mM 1,3-diaminopropane in 0.15 M NaCl (15 ml). The fractions collected (1 ml) were neutralized with 1 M phosphoric acid (approximately 16 μl), and analyzed by either absorbance at 280 nm for protein, or by phenol-sulfuric acid assay, as described by Dubois et al. [Anal. Chem. 28: 350 (1956)] for the glycan. The column was finally washed thoroughly with PBS. The fractions containing the bound components were pooled and concentrated by Amicon ultrafiltration (Millipore Corp., Bedford, Mass.) using a membrane (YM10) of 10,000 molecular weight cut-off.

CO[C@H]1O[C@H](CO)[C@H](O)[C@H](O)[C@H]1O [Me-α-Gal, Methyl α-galactopyranoside]
Kd [1]: 8130 µM
TΔS [1]: 3.06 kcal/mol
−ΔG [1]: 2.82 kcal/mol
−ΔH [1]: 5.88 kcal/mol
Ka ([1]; Table 3): 0.123 10^3 M^−1
ligand binding (MOA): very poor

CC(=O)N[C@H]1C(O)O[C@H](CO)[C@@H](O[C@@H]2O[C@H](CO)[C@H](O)[C@H](O[C@H]3O[C@H](CO)[C@H](O)[C@H](O)[C@H]3O)[C@H]2O)[C@@H]1O (some centres unmarked) [Linear B2 trisacc., Galα1,3Galβ1,4GlcNAc]
increase of binding relative to Galα1,3Gal ([1]; addition of a GlcNAc group to the reducing end): approximately 50%
Ka [1]: 9700 M⁻¹
Kd [1]: 103 µM
TΔS [1]: 15.2 kcal/mol
−ΔG [1]: 5.39 kcal/mol
−ΔH [1]: 20.6 kcal/mol
Ka ([1]; Table 3): 9.753 10^3 M^−1
Ka, cMOA [1]: 9.75 10^3 M^−1
Kd (intact native MOA (nMOA)): 25.4 µM
Kd (recombinant MOA (rMOA)): 33 µM

OC[C@H]1O[C@H](OCC2O[C@@H](O)[C@H](O)[C@@H](O)[C@@H]2O)[C@H](O)[C@@H](O)[C@H]1O (stereo partly drawn) [melibiose, Ga1α1,6G1c]
ligand binding (MOA): very poor ligands

OC[C@H]1O[C@H](O[C@H]2[C@@H](O)[C@@H](CO)O[C@@H](O[C@H]3[C@H](O)[C@@H](O)C(O)O[C@@H]3CO)[C@@H]2O)[C@H](O)[C@@H](O)[C@H]1O (some centres unmarked) [Galα1,3Galβ1,4Glc]
Kd (intact native MOA (nMOA)): 59.9 µM
Kd (recombinant MOA (rMOA)): 75.8 µM

OC[C@H]1O[C@@H](O[C@H]2[C@H](O)[C@@H](O)C(O)O[C@@H]2CO)[C@H](O)[C@@H](O)[C@H]1O (some centres unmarked) [Lactose]
Ka [1]: 185 M⁻¹
Kd [1]: 5080 µM
TΔS [1]: 5.76 kcal/mol
−ΔG [1]: 3.1 kcal/mol
−ΔH [1]: 8.86 kcal/mol
Ka ([1]; Table 3): 0.197 10^3 M^−1
ligand binding (MOA): very poor ligands

CO[C@@H]1O[C@H](CO)[C@@H](O)[C@H](O[C@@H]2O[C@H](CO)[C@H](O)[C@H](O)[C@H]2O)[C@H]1NC(C)=O [LactoNbioseβMe]
Kd [1]: 4670 µM
TΔS [1]: 3.49 kcal/mol
−ΔG [1]: 3.15 kcal/mol
−ΔH [1]: 6.64 kcal/mol
Ka ([1]; Table 3): 0.214 10^3 M^−1

CC(=O)N[C@H]1C(O)O[C@H](CO)[C@@H](O[C@@H]2O[C@H](CO)[C@H](O)[C@H](O)[C@H]2O)[C@@H]1O (some centres unmarked) [LacNAc, N-acetyllactosamine]
Kd [1]: 3450 µM
TΔS [1]: 10.9 kcal/mol
−ΔG [1]: 3.33 kcal/mol
−ΔH [1]: 14.22 kcal/mol
Ka ([1]; Table 3): 0.290 10^3 M^−1
Ka, cMOA [1]: 0.29 10^3 M^−1
Kd (intact native MOA (nMOA)): 2630 µM
Kd (recombinant MOA (rMOA)): 1490 µM
ligand binding (MOA): very poor ligands

degalactosylated bovine thyroglobulin: α-galactosidase-digested bovine thyroglobulin
binding to MOA-Sepharose column (immobilized MOA): passed through the column

asialofetuin: asialofetuin, with terminal Galβ1,4GlcNAc residues
binding to MOA-Sepharose column (immobilized MOA): passed through the column

OC[C@H]1O[C@H](O[C@H]2[C@@H](O)[C@@H](CO)OC(O)[C@@H]2O)[C@H](O)[C@@H](O)[C@H]1O (some centres unmarked) [Galα1,3Gal]
affinity constant relative to that for Meα-Gal [1]: 44 fold
Ka [1]: 6000 M⁻¹
Kd [1]: 182 µM
TΔS [1]: 15.0 kcal/mol
−ΔG [1]: 5.05 kcal/mol
−ΔH [1]: 20.1 kcal/mol
Ka ([1]; Table 3): 5.48 10^3 M^−1
ligand binding ([1]; Table 3): excellent ligand
Ka, cMOA [1]: 5.48 10^3 M^−1
Kd (intact native MOA (nMOA)): 36.6 µM
Kd (recombinant MOA (rMOA)): 37.5 µM
ligand binding (MOA): excellent ligand

C[C@@H]1O[C@@H](O[C@H]2C(O)O[C@H](CO)[C@H](O)[C@@H]2O[C@H]2O[C@H](CO)[C@H](O)[C@H](O)[C@H]2O)[C@@H](O)[C@H](O)[C@@H]1O (some centres unmarked) [B trisaccharide, Galα1,3[Fucα1,2]Gal]
enhancement of affinity to MOA relative to Galα1,3Gal ([1]; addition of an L-fucosyl group): 4 fold
Ka [1]: 36000 M⁻¹
Kd [1]: 36 µM
TΔS [1]: 14.6 kcal/mol
−ΔG [1]: 6.01 kcal/mol
−ΔH [1]: 20.6 kcal/mol
Ka ([1]; Table 3): 27.8 10^3 M^−1
Ka, cMOA [1]: 27.8 10^3 M^−1
Kd (recombinant MOA (rMOA)): 21.7 µM

CC1OC(OC2C(OC3C(CO)OC(O)C(O)C3O)OC(CO)C(O)C2O)C(O)C(O)C1O [2′ Fucosyllactose, L-Fucα1,2Ga1β1,4G1c]
Ka [1]: 548 M⁻¹
Kd [1]: 1830 µM
TΔS [1]: 6.4 kcal/mol
−ΔG [1]: 3.70 kcal/mol
−ΔH [1]: 10.1 kcal/mol
Ka ([1]; Table 3): .548 10^3 M^−1
ligand binding (MOA): low but measurable binding

OCC1OC(OC2C(O)OC(CO)C(O)C2O)C(O)C(O)C1O (stereo not drawn) [Galβ1,2Gal, Ga1α1,2Ga1]
Kd [1]: > 10000 µM
Ka ([1]; Table 3): <0.1 10^3 M^−1
ligand binding ([1]; Table 3): bound poorly or not at all
ligand binding (MOA): bound poorly or not at all

OC[C@H]1O[C@@H](OC[C@H]2OC(O)[C@H](O)[C@@H](O)[C@H]2O)[C@H](O)[C@@H](O)[C@H]1O (some centres unmarked) [Galβ1,6Gal]
TΔS [1]: 2.84 kcal/mol
−ΔG [1]: 3.28 kcal/mol
−ΔH [1]: 6.12 kcal/mol

Ga1α1,6Ga1
ligand binding ([1]; Table 3): bound poorly or not at all
ligand binding (MOA): bound poorly or not at all

OCC1OC(OC2C(CO)OC(O)C(O)C2O)C(O)C(O)C1O (stereo not drawn) [Galβ1,4Gal, G1α1,4Ga1]
Kd [1]: > 10000 µM
Ka ([1]; Table 3): <0.1 10^3 M^−1
ligand binding ([1]; Table 3): bound poorly or not at all
ligand binding (MOA): bound poorly or not at all

— patent US6958321B2, “Isolation, characterization, cloning and use of a mushroom lectin” (The Regents of the University of Michigan, priority 2001, dated 2005)
